Measurements as given in US20240317758A1 (Halia Therapeutics, Inc., priority 2021, published 2024).

Tests used:
[1] = target: T1, full-length recombinant human NEK7 (Homo sapiens, UniProt Q8TDX7); experiment: NEK7 enzymatic assay; assay type: biochemical; conditions: recombinant human NEK7, casein substrate, radiolabelled ATP
T1 construct: full-length recombinant human NEK7; GST (N); purchased SignalChem NO9-10G; host or cells: Sf9 insect cells (baculovirus)
How it was run: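 Full-length GST-tagged human NEK7 from Sf9 cells (assay concentration 70 nM) was used with casein (assay concentration 20 μM) in Hepes pH 7.5 buffer, 1% DMSO, and compound (3-fold dilutions, 10 μM to 0.5 nM) was preincubated 20 min at room temperature. Radiolabelled ATP was added for 2 h, phosphorylation was read on P81 paper, and IC50 was fitted from % activity remaining versus vehicle.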

IL-1β release = IL-1β release assay (THP-1 cells, PMA, LPS, nigericin); assay type: cell-based; conditions: Homo sapiens, LPS 250 ng/mL, nigericin 20 μM, cleaved IL-1β in media
Description: Approximately 1.5 million THP-1 cells were plated in each well of a 6-well TC plate and incubated with 40 nM PMA in RPMI (10% FBS, 1% Penstrep) for 24 hours. The media was then removed and cells were rested in RPMI (10% FBS, 1% Penstrep) for 24 hours after which time the media was removed and cells were pre-treated for 2 hours with various concentrations of compounds of interest (typically serial 3-fold dilution in RPMI+5% FBS, concentrations ranging from 1 μM to 0.5 nM) in RPMI (5% FBS). The media was again removed and cells were incubated with 250 ng/mL LPS and compounds of interest (concentrations as above) in RMPI (5% FBS) for 2 hours. The media was removed for a last time and cells were incubated with 20 μM nigericin and compounds of interest (concentrations as above) in Opti-MEM for 30 minutes. Cell media was then collected and the amount of cleaved IL-1β was determined using a JESS instrument (Protein Simple) and standard protocols. Cleaved Il-1β antibody was obtained from Cell Signaling (catalogue #83186S) and was used at 1:20 dilution in antibody diluent 2. Protein Simple 1× anti-Rabbit HRP secondary antibody was used along with Protein Simple luminol and peroxide for chemiluminescent detection. Primary antibody incubation time was increased from 30 minutes to 60 minutes.

T1 sequence (Q8TDX7 whole entry): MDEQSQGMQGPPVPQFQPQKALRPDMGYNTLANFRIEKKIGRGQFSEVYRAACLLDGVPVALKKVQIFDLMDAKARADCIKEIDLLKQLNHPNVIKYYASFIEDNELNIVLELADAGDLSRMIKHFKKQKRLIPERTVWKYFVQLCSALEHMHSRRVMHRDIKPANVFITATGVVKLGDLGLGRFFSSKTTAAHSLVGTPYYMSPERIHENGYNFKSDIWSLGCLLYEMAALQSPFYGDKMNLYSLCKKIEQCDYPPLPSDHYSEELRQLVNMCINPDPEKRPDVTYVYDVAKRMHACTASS

`Nc1ncnc2c1c(-c1ccc(NC(=O)Nc3ccc(OC4CCN(C5COC5)CC4)c(C(F)(F)F)c3)c(F)c1)cn2C1CC1` [Example I-83, 1-(4-(4-amino-7-cyclopropyl-7H-pyrrolo[2,3-d]pyrimidin-5-yl)-2-fluorophenyl)-3-(4-((1-(oxetan-3-yl)piperidin-4-yl)oxy)-3-(trifluoromethyl)phenyl)urea] gave an IC50 [1] of 100 to 500 nM and an IC50 (IL-1β release) of 50 to 250 nM.
For `Nc1ncnc2c1c(-c1ccc(NC(=O)Nc3ccc(CN4CCN(CCF)CC4)c(C(F)(F)F)c3)c(F)c1)cn2C1CC1` [Example I-84, 1-(4-(4-amino-7-cyclopropyl-7H-pyrrolo[2,3-d]pyrimidin-5-yl)-2-fluorophenyl)-3-(4-((4-(2-fluoroethyl)piperazin-1-yl)methyl)-3-(trifluoromethyl)phenyl)urea], the IC50 [1] was < 100 nM and the IC50 (IL-1β release) was < 50 nM.
In the case of `CN1CCN(Cc2cc(NC(=O)Nc3ccc(-c4nn(C5CC5)c5ncnc(N)c45)cc3F)cc(C(F)(F)F)c2)CC1` [Example I-87, 1-(4-(4-amino-1-cyclopropyl-1H-pyrazolo[3,4-d]pyrimidin-3-yl)-2-fluorophenyl)-3-(3-((4-methylpiperazin-1-yl)methyl)-5-(trifluoromethyl)phenyl)urea], the IC50 [1] is reported as < 100 nM and the IC50 (IL-1β release) is reported as > 1000 nM.
For `CN1CCN(C2CC(F)(F)c3cc(NC(=O)Nc4ccc(-c5nn(C6CC6)c6ncnc(N)c56)cc4F)ccc32)CC1` (stereo not drawn) [Example I-94, 1-(4-(4-amino-1-cyclopropyl-1H-pyrazolo[3,4-d]pyrimidin-3-yl)-2-fluorophenyl)-3-(3,3-difluoro-1-(4-methylpiperazin-1-yl)-2,3-dihydro-1H-inden-5-yl)urea], the IC50 [1] was < 100 nM and the IC50 (IL-1β release) was 50 to 250 nM.
For `CS(=O)(=O)N1CCN(Cc2ccc(NC(=O)Nc3ccc(-c4cn(C5CC5)c5ncnc(N)c45)cc3F)cc2C(F)(F)F)CC1` [Example I-98, 1-(4-(4-amino-7-cyclopropyl-7H-pyrrolo[2,3-d]pyrimidin-5-yl)-2-fluorophenyl)-3-(4-((4-(methylsulfonyl)piperazin-1-yl)methyl)-3-(trifluoromethyl)phenyl)urea], the IC50 [1] was 500 to 2000 nM and the IC50 (IL-1β release) was > 1000 nM.
`CS(=O)(=O)CCN1CCN(Cc2ccc(NC(=O)Nc3ccc(-c4cn(C5CC5)c5ncnc(N)c45)cc3F)cc2C(F)(F)F)CC1` [Example I-99, 1-(4-(4-amino-7-cyclopropyl-7H-pyrrolo[2,3-d]pyrimidin-5-yl)-2-fluorophenyl)-3-(4-((4-(2-(methylsulfonyl)ethyl)piperazin-1-yl)methyl)-3-(trifluoromethyl)phenyl)urea] was tested, and the IC50 [1] was < 100 nM and the IC50 (IL-1β release) was 50 to 250 nM.
`Nc1ncnc2c1c(-c1ccc(NC(=O)Nc3ccc(CN4CCN(CCS(=O)(=O)O)CC4)c(C(F)(F)F)c3)c(F)c1)cn2C1CC1` [Example I-100, 2-(4-(4-(3-(4-(4-amino-7-cyclopropyl-7H-pyrrolo[2,3-d]pyrimidin-5-yl)-2-fluorophenyl)ureido)-2-(trifluoromethyl)benzyl)piperazin-1-yl)ethane-1-sulfonic acid] was tested, and the IC50 [1] was < 100 nM and the IC50 (IL-1β release) was > 1000 nM.
In the case of `CN1CCN(Cc2ccc(NC(=O)Nc3ccc(-c4cn(C5CCN(S(C)(=O)=O)CC5)c5ncnc(N)c45)cc3F)cc2C(F)(F)F)CC1` [Example I-101, 1-(4-(4-amino-7-(1-(methylsulfonyl)piperidin-4-yl)-7H-pyrrolo[2,3-d]pyrimidin-5-yl)-2-fluorophenyl)-3-(4-((4-methylpiperazin-1-yl)methyl)-3-(trifluoromethyl)phenyl)urea], the IC50 [1] is reported as < 100 nM and the IC50 (IL-1β release) is reported as 50 to 250 nM.
For `CN1CCN(Cc2ccc(NC(=O)Nc3ccc(-c4cn(C5CCN(S(=O)(=O)C6CC6)CC5)c5ncnc(N)c45)cc3F)cc2C(F)(F)F)CC1` [Example I-102, 1-(4-(4-amino-7-(1-(cyclopropylsulfonyl)piperidin-4-yl)-7H-pyrrolo[2,3-d]pyrimidin-5-yl)-2-fluorophenyl)-3-(4-((4-methylpiperazin-1-yl)methyl)-3-(trifluoromethyl)phenyl)urea], the IC50 [1] was < 100 nM and the IC50 (IL-1β release) was 50 to 250 nM.
